In US4680382A, “Analogues of actinomycin D” (priority 1986, dated 1987):

Key:
[1] = target: T1, NADPH cytochrome P-450 reductase (rat liver microsomes) (Rattus norvegicus, UniProt P00388); assay: Stimulation of NADPH oxidation in rat hepatic microsomal incubations; details: for NADPH oxid: 340 nm, 37° C., phenobarbital induced microsomes, mean ± standard error of triplicate, basal 9.11 ± 0.30; for percentage stimulation of NADPH oxidation over basal rate: (drug-stimulated rate - basal rate)/basal rate × 100
T1 sequence (P00388 1-678): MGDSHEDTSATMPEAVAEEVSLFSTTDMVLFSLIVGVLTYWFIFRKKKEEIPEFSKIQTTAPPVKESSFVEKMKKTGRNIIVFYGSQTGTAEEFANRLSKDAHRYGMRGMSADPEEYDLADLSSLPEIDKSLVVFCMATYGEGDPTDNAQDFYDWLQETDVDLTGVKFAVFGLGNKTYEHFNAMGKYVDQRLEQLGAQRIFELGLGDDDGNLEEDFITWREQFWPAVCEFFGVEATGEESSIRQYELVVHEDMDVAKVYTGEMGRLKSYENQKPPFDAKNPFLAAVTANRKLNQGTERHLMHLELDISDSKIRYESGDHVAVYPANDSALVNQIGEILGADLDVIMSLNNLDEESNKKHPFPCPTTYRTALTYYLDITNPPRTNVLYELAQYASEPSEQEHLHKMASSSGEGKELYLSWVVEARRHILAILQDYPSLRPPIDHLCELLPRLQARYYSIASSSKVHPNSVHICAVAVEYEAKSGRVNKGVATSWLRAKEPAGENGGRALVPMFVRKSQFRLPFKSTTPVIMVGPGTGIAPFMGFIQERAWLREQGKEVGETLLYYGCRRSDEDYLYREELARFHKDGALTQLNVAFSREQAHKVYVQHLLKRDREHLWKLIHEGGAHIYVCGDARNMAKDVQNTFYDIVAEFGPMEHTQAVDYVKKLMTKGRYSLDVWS

[2] = test system: rat hepatic microsomes; assay: Stimulation of adrenochrome formation (superoxide generation) in rat hepatic microsomal incubations; details: no SOD; for adrenochrome formation: 480 nm, 37° C., no more than 100 μM drug, basal 2.11 ± 0.11
[3] = test system: P388/S; assay: In vivo activity against P388/S (adriamycin sensitive) leukemia, Table VII; parameters: species or system BDF1 mice; details: for P388/S % ILS / P388/S tumor-free survivors/total on day 60: at optimal dose; for P388/S optimal dose: ip, days 1, 5 and 9
Procedure: (§1) ^a Male BDF1 mice inoculated ip: 10^6 cells inoculum, day 0.
(§2) Drugs administered in 10% dimethyl sulfoxidesaline on days 1, 5 and 9. %
(§3) ILS = percent increase in life span. Fractions in parentheses = tumorfree
(§4) survivors/total on day 60. P388/S (adriamycin sensitive) and P388/ADR
(§5) (adriamycin resistant) tumors were evaluated in the same experiment with […]

[4] = test system: P388/ADR; assay: In vivo activity against P388/adriamycin-resistant leukemia; parameters: species or system BDF1 mice; details: for P388/ADR optimal dose: ip, days 1, 5 and 9
Procedure: as §1, §2, §3, §4, §5

Row | SMILES | NADPH oxid [1] | percentage stimulation of NADPH oxidation over basal rate [1] [%] | adrenochrome formation [2] | percentage stimulation of adrenochrome formation over basal rate [2] | P388/S % ILS [3] [%] | P388/S tumor-free survivors/total on day 60 [3] | P388/S optimal dose [3] [mg/kg] | P388/ADR % ILS ([4]; at optimal dose) [%] | P388/ADR tumor-free survivors/total on day 60 ([4]; at optimal dose) | P388/ADR optimal dose [4] [mg/kg]
1 | CCN(CC)C(=O)c1c2nc3c(C(=O)N(CC)CC)ccc(C)c3oc-2c(C)c(=O)c1N [1b] | 8.9 ± 0.90 nmol min^-1 (mg of protein)^-1 | -2 | 2.13 ± 0.19 nmol min^-1 (mg of protein)^-1 | +1% |  |  |  |  |  | 
2 | CO[C@@]12[C@H](COC(N)=O)C3=C(C(=O)C(C)=C(N)C3=O)N1C[C@@H]1N[C@@H]12 [mitomycin C, reference compound] |  |  |  |  | 136 | 1/8 | 3.0 | 400 | 5/8 | 3.0
3 | CCN(CC)C(=O)c1cc(=O)c(C)c2oc3c(C)c4oc(C)nc4c(C(=O)N(CC)CC)c3nc1-2 [9b] | 8.9 ± 0.90 nmol min^-1 (mg of protein)^-1 | -2 | 2.13 ± 0.19 nmol min^-1 (mg of protein)^-1 | +1% |  |  |  |  |  | 
4 | COc1cccc2c1C(=O)c1c(O)c3c(c(O)c1C2=O)C[C@@](O)(C(=O)CO)C[C@@H]3O[C@H]1C[C@H](N)[C@H](O)[C@H](C)O1 [adriamycin, reference compound] |  |  |  |  | 97 | 1/8 | 3.0 | 33 |  | 3.5
